In PubChem BioAssay AID1963958 (Molecular Pharmacology Branch, DTP, NCI, 2024):
pIC50: −log10 of the molar value.

Test system: MDA-MB-231 multicell spheroids, viability
Assay: Anticancer human tumor MDA-MB-231 cell line growth inhibition [PI3K];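 also: spheroids exposed to agents for seven days before reading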;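 as to viability, T/C: percent of vehicle control luminescence with DMSO treated spheroids as 100%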
Details: for pIC50: curve of first compound; for viability, T/C: stronger effect = lower value
Outline: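 Tumor cells grown as multi-cell spheroids with HUVEC endothelial cells and MSC fibroblast-like stroma were treated with targeted agents combined with inavolisib, alpelisib, duvelisib or copanlisib. Doses fell in half-log steps from near clinical Cmax, else from 10 microM. Viability was measured.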

[1] = second compound 0.0316 µM, first compound 0.0316 µM
[2] = second compound 0.0316 µM, first compound 0.1 µM
[3] = second compound 0.0316 µM, first compound 0.316 µM
[4] = second compound 0.0316 µM, first compound 1 µM
[5] = second compound 0.0316 µM, first compound 3.16 µM
[6] = second compound 0.0316 µM, first compound 10 µM
[7] = second compound 0.1 µM, first compound 0.0316 µM
[8] = second compound 0.1 µM, first compound 0.1 µM
[9] = second compound 0.1 µM, first compound 0.316 µM
[10] = second compound 0.1 µM, first compound 1 µM
[11] = second compound 0.1 µM, first compound 3.16 µM
[12] = second compound 0.1 µM, first compound 10 µM
[13] = second compound 0.316 µM, first compound 0.0316 µM
[14] = second compound 0.316 µM, first compound 0.1 µM
[15] = second compound 0.316 µM, first compound 0.316 µM
[16] = second compound 0.316 µM, first compound 1 µM
[17] = second compound 0.316 µM, first compound 3.16 µM
[18] = second compound 0.316 µM, first compound 10 µM
[19] = second compound 1 µM, first compound 0.0316 µM
[20] = second compound 1 µM, first compound 0.1 µM
[21] = second compound 1 µM, first compound 0.316 µM
[22] = second compound 1 µM, first compound 1 µM
[23] = second compound 1 µM, first compound 3.16 µM
[24] = second compound 1 µM, first compound 10 µM
[25] = second compound 3.16 µM, first compound 0.0316 µM
[26] = second compound 3.16 µM, first compound 0.1 µM
[27] = second compound 3.16 µM, first compound 0.316 µM
[28] = second compound 3.16 µM, first compound 1 µM
[29] = second compound 3.16 µM, first compound 3.16 µM
[30] = second compound 3.16 µM, first compound 10 µM
[31] = second compound 10 µM, first compound 0.0316 µM
[32] = second compound 10 µM, first compound 0.1 µM
[33] = second compound 10 µM, first compound 0.316 µM
[34] = second compound 10 µM, first compound 1 µM
[35] = second compound 10 µM, first compound 3.16 µM
[36] = second compound 10 µM, first compound 10 µM

Work on `CC(C)NCC(C(=O)N1CCN(c2ncnc3c2C(C)CC3O)CC1)c1ccc(Cl)cc1` (stereo not drawn) + Cc1nc(NC(=O)N2CCCC2C(N)=O)sc1-c1ccnc(C(C)(C)C(F)(F)F)c1 yielded a pIC50 (second compound 0.0316 µM) of 5.12, a pIC50 (second compound 0.1 µM) of 5.17 and a pIC50 (second compound 0.316 µM) of 5.33. The pIC50 (second compound 1 µM) was 5.36, the pIC50 (second compound 3.16 µM) was 5.39 and the pIC50 (second compound 10 µM) was 5.43. The viability, T/C [1] was 95.8%, the viability, T/C [2] was 95.9% and the viability, T/C [3] was 82.7%. The viability, T/C [4] was 83.5%, the viability, T/C [5] was 66.9% and the viability, T/C [6] was 44.2%. It also gave a viability, T/C [7] of 84.8%, a viability, T/C [8] of 79.9% and a viability, T/C [9] of 71.4%. The viability, T/C [10] was 73.5%, the viability, T/C [11] was 64% and the viability, T/C [12] was 42.5%. For the same compound, the viability, T/C [13] was 72.6%, the viability, T/C [14] was 77.8% and the viability, T/C [15] was 73.4%. It also gave a viability, T/C [16] of 63.4%, a viability, T/C [17] of 55% and a viability, T/C [18] of 42.6%. The viability, T/C [19] was 70.7%, the viability, T/C [20] was 66.6% and the viability, T/C [21] was 63.7%. It also gave a viability, T/C [22] of 60.4%, a viability, T/C [23] of 55.6% and a viability, T/C [24] of 40.4%. The viability, T/C [25] was 73.7%, the viability, T/C [26] was 66.4% and the viability, T/C [27] was 64.3%. The viability, T/C [28] was 60.6%, the viability, T/C [29] was 54.3% and the viability, T/C [30] was 40.4%. The viability, T/C [31] was 68.7%, the viability, T/C [32] was 65.5% and the viability, T/C [33] was 61.3%. The viability, T/C [34] was 59.9%, the viability, T/C [35] was 53.4% and the viability, T/C [36] was 37.8%.
`CCN1CCN(Cc2ccc(Nc3ncc(F)c(-c4cc(F)c5nc(C)n(C(C)C)c5c4)n3)nc2)CC1` + Cc1nc(NC(=O)N2CCCC2C(N)=O)sc1-c1ccnc(C(C)(C)C(F)(F)F)c1 showed a pIC50 (second compound 0.0316 µM) of 6.58, a pIC50 (second compound 0.1 µM) of 7.05 and a pIC50 (second compound 0.316 µM) of 7.51. It also gave a pIC50 (second compound 1 µM) of 7.69, a pIC50 (second compound 3.16 µM) of 7.63 and a pIC50 (second compound 10 µM) of 7.86. For the same compound, the viability, T/C (second compound 0.0316 µM, first compound 0.00316 µM) was 90.9%, the viability, T/C (second compound 0.0316 µM, first compound 0.01 µM) was 75.5% and the viability, T/C [1] was 66.3%. For the same compound, the viability, T/C [2] was 54.2%, the viability, T/C [3] was 45.3% and the viability, T/C [4] was 49.6%. The viability, T/C (second compound 0.1 µM, first compound 0.00316 µM) was 82.4%, the viability, T/C (second compound 0.1 µM, first compound 0.01 µM) was 74.1% and the viability, T/C [7] was 59.8%. For the same compound, the viability, T/C [8] was 50.5%, the viability, T/C [9] was 40.8% and the viability, T/C [10] was 46.4%. It also gave a viability, T/C (second compound 0.316 µM, first compound 0.00316 µM) of 72.3%, a viability, T/C (second compound 0.316 µM, first compound 0.01 µM) of 66.7% and a viability, T/C [13] of 50.3%. It also gave a viability, T/C [14] of 40.9%, a viability, T/C [15] of 41.3% and a viability, T/C [16] of 47.9%. The viability, T/C (second compound 1 µM, first compound 0.00316 µM) was 65.8%, the viability, T/C (second compound 1 µM, first compound 0.01 µM) was 57.3% and the viability, T/C [19] was 45.8%. For the same compound, the viability, T/C [20] was 40.2%, the viability, T/C [21] was 40% and the viability, T/C [22] was 47.7%. It also gave a viability, T/C (second compound 3.16 µM, first compound 0.00316 µM) of 66.2%, a viability, T/C (second compound 3.16 µM, first compound 0.01 µM) of 58.6% and a viability, T/C [25] of 47.7%. It also gave a viability, T/C [26] of 41.6%, a viability, T/C [27] of 37.6% and a viability, T/C [28] of 48.4%. The viability, T/C (second compound 10 µM, first compound 0.00316 µM) was 66.2%, the viability, T/C (second compound 10 µM, first compound 0.01 µM) was 53.2% and the viability, T/C [31] was 44.4%. For the same compound, the viability, T/C [32] was 42%, the viability, T/C [33] was 39.4% and the viability, T/C [34] was 47.5%.
`Cn1ncc(Cl)c1-c1cc(C(=O)NC(CN)Cc2cccc(F)c2)sc1Cl` (stereo not drawn) + Cc1nc(NC(=O)N2CCCC2C(N)=O)sc1-c1ccnc(C(C)(C)C(F)(F)F)c1 showed a pIC50 (second compound 0.0316 µM) of 5.48, a pIC50 (second compound 0.1 µM) of 5.57 and a pIC50 (second compound 0.316 µM) of 5.72. It also gave a pIC50 (second compound 1 µM) of 5.72, a pIC50 (second compound 3.16 µM) of 5.74 and a pIC50 (second compound 10 µM) of 5.61. The viability, T/C [1] was 104%, the viability, T/C [2] was 89.2% and the viability, T/C [3] was 82.9%. For the same compound, the viability, T/C [4] was 71.8%, the viability, T/C [5] was 49.9% and the viability, T/C [6] was 28.8%. For the same compound, the viability, T/C [7] was 86.6%, the viability, T/C [8] was 83.3% and the viability, T/C [9] was 81%. It also gave a viability, T/C [10] of 66.2%, a viability, T/C [11] of 47.8% and a viability, T/C [12] of 24.4%. The viability, T/C [13] was 76%, the viability, T/C [14] was 80.8% and the viability, T/C [15] was 70.5%. It also gave a viability, T/C [16] of 64.8%, a viability, T/C [17] of 38.8% and a viability, T/C [18] of 25.1%. It also gave a viability, T/C [19] of 67.7%, a viability, T/C [20] of 72.3% and a viability, T/C [21] of 64.3%. It also gave a viability, T/C [22] of 57%, a viability, T/C [23] of 44.4% and a viability, T/C [24] of 24.5%. The viability, T/C [25] was 72.1%, the viability, T/C [26] was 66.6% and the viability, T/C [27] was 66.7%. For the same compound, the viability, T/C [28] was 57.6%, the viability, T/C [29] was 42.7% and the viability, T/C [30] was 26.6%. It also gave a viability, T/C [31] of 69%, a viability, T/C [32] of 62% and a viability, T/C [33] of 57.9%. It also gave a viability, T/C [34] of 60.4%, a viability, T/C [35] of 48% and a viability, T/C [36] of 23.5%.
In the case of `Cn1nccc1Nc1nccc(-c2ccn(C(CO)c3ccc(Cl)c(F)c3)c(=O)c2)n1` (stereo not drawn) + Cc1nc(NC(=O)N2CCCC2C(N)=O)sc1-c1ccnc(C(C)(C)C(F)(F)F)c1, the pIC50 (second compound 0.0316 µM) was 6.21, the pIC50 (second compound 0.1 µM) was 6.37 and the pIC50 (second compound 0.316 µM) was 6.82. For the same compound, the pIC50 (second compound 1 µM) was 7.06, the pIC50 (second compound 3.16 µM) was 7.24 and the pIC50 (second compound 10 µM) was greater than 7.50. It also gave a viability, T/C [1] of 75.6%, a viability, T/C [2] of 65% and a viability, T/C [3] of 56.1%. For the same compound, the viability, T/C [4] was 45.3%, the viability, T/C [5] was 36.5% and the viability, T/C [6] was 26%. It also gave a viability, T/C [7] of 66.2%, a viability, T/C [8] of 58.1% and a viability, T/C [9] of 54%. It also gave a viability, T/C [10] of 41.6%, a viability, T/C [11] of 35.7% and a viability, T/C [12] of 22.4%. The viability, T/C [13] was 62.2%, the viability, T/C [14] was 49.5% and the viability, T/C [15] was 46.7%. For the same compound, the viability, T/C [16] was 37.6%, the viability, T/C [17] was 29.3% and the viability, T/C [18] was 21.9%. The viability, T/C [19] was 56.6%, the viability, T/C [20] was 47.2% and the viability, T/C [21] was 43.6%. For the same compound, the viability, T/C [22] was 34.6%, the viability, T/C [23] was 25.1% and the viability, T/C [24] was 19.7%. The viability, T/C [25] was 53.8%, the viability, T/C [26] was 47.2% and the viability, T/C [27] was 37.8%. The viability, T/C [28] was 34.3%, the viability, T/C [29] was 24.2% and the viability, T/C [30] was 16.7%. The viability, T/C [31] was 43.2%, the viability, T/C [32] was 37.1% and the viability, T/C [33] was 33%. It also gave a viability, T/C [34] of 29.6%, a viability, T/C [35] of 21.9% and a viability, T/C [36] of 10.6%.
